Biological target: T1, Proto-oncogene tyrosine-protein kinase Src (Homo sapiens, UniProt P12931)
Experiment: Inhibition of fluorescent (GpYEEI) binding to Src protein tyrosine kinase SH2 domain; NA = No significant inhibition; call rule not given here

T1 sequence (P12931 2-536 limits assumed): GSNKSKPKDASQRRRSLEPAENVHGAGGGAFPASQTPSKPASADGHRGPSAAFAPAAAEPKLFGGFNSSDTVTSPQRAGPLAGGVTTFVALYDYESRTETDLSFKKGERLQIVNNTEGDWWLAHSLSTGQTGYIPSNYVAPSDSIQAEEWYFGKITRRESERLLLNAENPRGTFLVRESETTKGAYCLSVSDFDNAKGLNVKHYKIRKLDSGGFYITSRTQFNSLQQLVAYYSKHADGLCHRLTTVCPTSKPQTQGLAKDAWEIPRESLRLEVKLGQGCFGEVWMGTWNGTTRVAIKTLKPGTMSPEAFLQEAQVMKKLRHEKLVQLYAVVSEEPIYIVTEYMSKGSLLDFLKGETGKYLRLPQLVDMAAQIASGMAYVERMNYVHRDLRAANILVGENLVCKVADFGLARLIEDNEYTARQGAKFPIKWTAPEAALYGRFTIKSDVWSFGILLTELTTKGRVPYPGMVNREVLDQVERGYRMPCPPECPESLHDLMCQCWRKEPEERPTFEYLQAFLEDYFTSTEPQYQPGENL

IC50 | SMILES
Not Active | COC(=O)c1cc(OCC(=O)N[C@H](C(=O)NCc2cccc(OC)c2)c2ccccc2)cc(C(=O)OC)n1

Biological target: T1, Proto-oncogene tyrosine-protein kinase Src
Experiment: Inhibition of fluorescent (GpYEEI) binding to Src protein tyrosine kinase SH2 domain

SMILES | IC50
COC(=O)c1cc(OCC(=O)N[C@@H](CC(C)C)C(=O)NCc2cccc(OC)c2)cc(C(=O)OC)n1 | 713 µM
COc1ccc(CNC(=O)[C@H](CC(C)C)NC(=O)COc2cc(C(=O)O)cc(C(=O)O)c2)cc1 | 864 µM
COC(=O)c1cc(OCC(=O)N[C@H](C(=O)NCc2ccc3c(c2)OCO3)c2ccccc2)cc(C(=O)OC)n1 | 714 µM

Further lines, results first:

IC50 | SMILES
663 µM | COC(=O)c1cc(OCC(=O)N[C@@H](Cc2ccccc2)C(=O)NCc2cccc(OC)c2)cc(C(=O)OC)n1
396 µM | COC(=O)c1cc(OCC(=O)N[C@@H](Cc2ccccc2)C(=O)NCc2ccc3c(c2)OCO3)cc(C(=O)OC)n1
